# Experimental data as given in US20170290774A1, “NEUROKININ-1 RECEPTOR ANTAGONIST COMPOSITION FOR TREATMENT OF DISEASES AND CONDITIONS OF THE RESPIRATORY TRACT” (PLUS VITECH, S.L., priority 2014, published 2017).
# Tests used:
# TGFβ2 = assay: Immunohistochemistry of TGFβ2 in respiratory tract tissue of sodium hypochlorite aerosol-treated rabbits; type: in vivo, New Zealand albino rabbits
# Source text: (§1) It is known that the factors TGF-α, TGF-β 1, TGF-β 2, TGF-β 3, SPARC, MMP-3; MMP-7, MMP-9, MMP-11, MMP-13 and MMP-14, TGF-β, NF-kB, EGF, MMP-9, VEGF and TNF-α which are produced by lung cells (pneumocytes, fibroblasts and vascular endothelial cells) and inflammatory cells (macrophages, lymphocytes and polymorphonuclear leukocytes) are involved in the pathophysiology and development of said respiratory tract diseases. […] Herein, 27 New Zealand albino rabbits (New Zealand White Rabbit) with an initial average weight about 3 kg were used in this example. All subjects were administered an aerosol of a solution consisting of a mixture of water and sodium hypochlorite (35 g sodium hypochlorite per liter of water) at a rate of 5 mL of said solution by inhalation three times a day for 7 days (days 1 to 7 of experimentation). Subsequently, from days 3 to 7, a group of 3 rabbits (Group 1) was administered an oral dose of 10 mg/kg body weight per day, another group of 3 rabbits (Group 2) was administered an oral dose of 40 mg/kg body weight per day, a third group (Group 3) was administered an oral dose of 80 mg/kg body weight per day and a fourth group (Group 4) was administered an oral dose of 100 mg/kg body weight per day. […] This mixture was administered as an aerosol by inhalation, also from days 3 to 7, to a group of 3 rabbits (group 5) at a dose of 0.05 mg/kg body weight per day, to another group of three rabbits (Group 6) at a dose of 0.1 mg/kg body weight per day, to another group of three rabbits (Group 7) at a dose of 0.2 mg/kg body weight per day and to another group of three rabbits (Group 8) at a dose of 0.4 mg/kg body weight per day. A placebo consisting only of olive oil was administered from days 3 to 7 to a control group of 3 rabbits (placebo group). In parallel, 3 rabbits were kept under identical conditions but were not administered any treatment nor the aforementioned sodium hypochlorite solution (control group). […] On day 7 of the experiment all animals were euthanized and necropsied. […] Samples were taken at the peripheral level of the lung parenchyma, just below the pleural surface. Tissue samples were also taken from the nasal cavity, pharynx, larynx and bronchi. Immunohistochemistry studies were performed for all samples to evaluate the levels of the markers TGF-α, TGF-β 1, TGF-β 2, TGF-β 3 SPARC, MMP-3; MMP-7, MMP-9, MMP-11, MMP-14, TGF-β, TNF-α and VEGF. In said immunohistochemistry studies, a sample of each sample was dehydrated by treatment with increasing concentrations of ethanol and finally xylene. Subsequently said dried samples were embedded in paraffin, thus creating a block. Said paraffin blocks were cut on a microtome to a thickness of 5 μm, and the resulting sections (slices) were placed on slides suitable for conducting immunohistochemistry techniques. Subsequently, the sections were deparaffinised by immersion in xylene and then rehydrated through immersion in a series of solutions containing decreasing concentrations of ethanol and, finally, water. […] The samples were then allowed to cool to room temperature over 10 minutes. Endogenous peroxidase activity was blocked by treatment with 3% hydrogen peroxide over 30 min at room temperature. […] In order to verify the expression of NK1 receptors, the cell samples were incubated in the presence of anti-NK1 antibodies ([…], Sigma-Aldrich) diluted 1:1000 at 4° C. overnight. After this time they were washed in 0.05M Tris buffer at room temperature. Subsequently, Envision System-HRP (Dako) reagents were added for 30 min at room temperature. Once this time had expired, the samples were again washed with 0.05 M Tris buffer, and immunoreactivity was visualized by light microscopy with a chromogenic solution with 3,3'-diaminobenzidine (DAB+; Dako, USA). In order to differentiate the cell nuclei, these were lightly stained with haematoxylin. Samples that were not incubated with the primary antibody, but wherein this was replaced by a non-immune serum were used as negative controls. […]
# TGFβ3 = assay: Immunohistochemistry of TGFβ3 in respiratory tract tissue of sodium hypochlorite aerosol-treated rabbits; type: in vivo, New Zealand albino rabbits
# Source text: as §1
# [1] = bronchial tissue, Group 1, oral 10 mg/kg per day
# [2] = bronchial tissue, Group 2, oral 40 mg/kg per day
# [3] = bronchial tissue, Group 3, oral 80 mg/kg per day
# [4] = bronchial tissue, Group 4, oral 100 mg/kg per day
# [5] = laryngeal tissue, Group 1, oral 10 mg/kg per day
# [6] = laryngeal tissue, Group 2, oral 40 mg/kg per day
# [7] = laryngeal tissue, Group 3, oral 80 mg/kg per day
# [8] = laryngeal tissue, Group 4, oral 100 mg/kg per day
# [9] = laryngeal tissue, Group 5, inhalation 0.05 mg/kg per day
# [10] = laryngeal tissue, Group 6, inhalation 0.1 mg/kg per day
# [11] = laryngeal tissue, Group 7, inhalation 0.2 mg/kg per day
# [12] = laryngeal tissue, Group 8, inhalation 0.4 mg/kg per day
# [13] = lung tissue, Group 1, oral 10 mg/kg per day
# [14] = lung tissue, Group 2, oral 40 mg/kg per day
# [15] = lung tissue, Group 3, oral 80 mg/kg per day
# [16] = lung tissue, Group 4, oral 100 mg/kg per day
# [17] = lung tissue, Group 5, inhalation 0.05 mg/kg per day
# [18] = lung tissue, Group 6, inhalation 0.1 mg/kg per day
# [19] = lung tissue, Group 7, inhalation 0.2 mg/kg per day
# [20] = lung tissue, Group 8, inhalation 0.4 mg/kg per day
# [21] = nasal cavity tissue, Group 1, oral 10 mg/kg per day
# [22] = nasal cavity tissue, Group 2, oral 40 mg/kg per day
# [23] = nasal cavity tissue, Group 3, oral 80 mg/kg per day
# [24] = nasal cavity tissue, Group 4, oral 100 mg/kg per day
# [25] = nasal cavity tissue, Group 5, inhalation 0.05 mg/kg per day
# [26] = nasal cavity tissue, Group 6, inhalation 0.1 mg/kg per day
# [27] = nasal cavity tissue, Group 7, inhalation 0.2 mg/kg per day
# [28] = nasal cavity tissue, Group 8, inhalation 0.4 mg/kg per day
# [29] = pharyngeal tissue, Group 1, oral 10 mg/kg per day
# [30] = pharyngeal tissue, Group 2, oral 40 mg/kg per day
# [31] = pharyngeal tissue, Group 3, oral 80 mg/kg per day
# [32] = pharyngeal tissue, Group 4, oral 100 mg/kg per day
# [33] = pharyngeal tissue, Group 5, inhalation 0.05 mg/kg per day
# [34] = pharyngeal tissue, Group 6, inhalation 0.1 mg/kg per day
# [35] = pharyngeal tissue, Group 7, inhalation 0.2 mg/kg per day
# [36] = pharyngeal tissue, Group 8, inhalation 0.4 mg/kg per day
smiles,measurement,setting,value
"C[C@@H](OC1OCCN(Cc2nc(=O)[nH][nH]2)C1c1ccc(F)cc1)c1cc(C(F)(F)F)cc(C(F)(F)F)c1 (stereo in doubt) [Aprepitant, 5-([(2R,3S)-2-((R)-1-[3,5-bis(trifluoromethyl)phenyl]ethoxy)-3-(4-fluorophenyl)morpholino]methyl)-1H-1,2,4-triazol-3(2H)-one]",Percent increase in TGFβ2 with respect to the control group,TGFβ2; [1],"1,342.12%"
same,Percent increase in TGFβ2 with respect to the control group,TGFβ2; [2],"1,008.32%"
same,Percent increase in TGFβ2 with respect to the control group,TGFβ2; [3],878.34%
same,Percent increase in TGFβ2 with respect to the control group,TGFβ2; [4],457.45%
same,% Med G5/C: percent increase in marker TGFβ2 with respect to the control group,"TGFβ2; bronchial tissue, Group 5","1,209.34%"
same,% Med G6/C: percent increase in marker TGFβ2 with respect to the control group,"TGFβ2; bronchial tissue, Group 6",878.45%
same,% Med G7/C: percent increase in marker TGFβ2 with respect to the control group,"TGFβ2; bronchial tissue, Group 7",328.45%
same,% Med G8/C: percent increase in marker TGFβ2 with respect to the control group,"TGFβ2; bronchial tissue, Group 8",126.45%
same,Percent increase in TGFβ2 with respect to the control group,TGFβ2; [5],"1,789.56%"
same,Percent increase in TGFβ2 with respect to the control group,TGFβ2; [6],"1,398.89%"
same,Percent increase in TGFβ2 with respect to the control group,TGFβ2; [7],989.89%
same,Percent increase in TGFβ2 with respect to the control group,TGFβ2; [8],816.89%
same,Percent increase in TGFβ2 with respect to the control group,TGFβ2; [9],"1,506.89%"
same,Percent increase in TGFβ2 with respect to the control group,TGFβ2; [10],996.89%
same,Percent increase in TGFβ2 with respect to the control group,TGFβ2; [11],560.38%
same,Percent increase in TGFβ2 with respect to the control group,TGFβ2; [12],120.23%
same,Percent increase in TGFβ2 with respect to the control group,TGFβ2; [13],775.23%
same,Percent increase in TGFβ2 with respect to the control group,TGFβ2; [14],582.05%
same,Percent increase in TGFβ2 with respect to the control group,TGFβ2; [15],475.25%
same,Percent increase in TGFβ2 with respect to the control group,TGFβ2; [16],438.55%
same,Percent increase in TGFβ2 with respect to the control group,TGFβ2; [17],797.78%
same,Percent increase in TGFβ2 with respect to the control group,TGFβ2; [18],338.44%
same,Percent increase in TGFβ2 with respect to the control group,TGFβ2; [19],198.92%
same,Percent increase in TGFβ2 with respect to the control group,TGFβ2; [20],125.88%
same,Percent increase in TGFβ2 with respect to the control group,TGFβ2; [21],"1,838.85%"
same,Percent increase in TGFβ2 with respect to the control group,TGFβ2; [22],"1,469.70%"
same,Percent increase in TGFβ2 with respect to the control group,TGFβ2; [23],"1,290.84%"
same,Percent increase in TGFβ2 with respect to the control group,TGFβ2; [24],"1,151.85%"
same,Percent increase in TGFβ2 with respect to the control group,TGFβ2; [25],"1,451.21%"
same,Percent increase in TGFβ2 with respect to the control group,TGFβ2; [26],825.63%
same,Percent increase in TGFβ2 with respect to the control group,TGFβ2; [27],252.52%
same,Percent increase in TGFβ2 with respect to the control group,TGFβ2; [28],136.09%
same,Percent increase in TGFβ2 with respect to the control group,TGFβ2; [29],"1,575.67%"
same,Percent increase in TGFβ2 with respect to the control group,TGFβ2; [30],"1,235.45%"
same,Percent increase in TGFβ2 with respect to the control group,TGFβ2; [31],980.65%
same,Percent increase in TGFβ2 with respect to the control group,TGFβ2; [32],780.54%
same,Percent increase in TGFβ2 with respect to the control group,TGFβ2; [33],"1,202.46%"
same,Percent increase in TGFβ2 with respect to the control group,TGFβ2; [34],725.63%
same,Percent increase in TGFβ2 with respect to the control group,TGFβ2; [35],252.52%
same,Percent increase in TGFβ2 with respect to the control group,TGFβ2; [36],136.09%
same,Percent increase in TGFβ3 with respect to the control group,TGFβ3; [1],672.56%
same,Percent increase in TGFβ3 with respect to the control group,TGFβ3; [2],452.45%
same,Percent increase in TGFβ3 with respect to the control group,TGFβ3; [3],345.32%
same,Percent increase in TGFβ3 with respect to the control group,TGFβ3; [4],236.12%
same,% Med G5/C: percent increase in marker TGFβ with respect to the control group,"TGFβ3; bronchial tissue, Group 5",604.34%
same,% Med G6/C: percent increase in marker TGFβ with respect to the control group,"TGFβ3; bronchial tissue, Group 6",439.53%
same,% Med G7/C: percent increase in marker TGFβ with respect to the control group,"TGFβ3; bronchial tissue, Group 7",234.56%
same,% Med G8/C: percent increase in marker TGFβ with respect to the control group,"TGFβ3; bronchial tissue, Group 8",179.19%
same,Percent increase in TGFβ3 with respect to the control group,TGFβ3; [5],"1,234.56%"
same,Percent increase in TGFβ3 with respect to the control group,TGFβ3; [6],"1,009.78%"
same,Percent increase in TGFβ3 with respect to the control group,TGFβ3; [7],899.98%
same,Percent increase in TGFβ3 with respect to the control group,TGFβ3; [8],567.89%
same,Percent increase in TGFβ3 with respect to the control group,TGFβ3; [9],"1,183.45%"
same,Percent increase in TGFβ3 with respect to the control group,TGFβ3; [10],702.33%
same,Percent increase in TGFβ3 with respect to the control group,TGFβ3; [11],305.32%
same,Percent increase in TGFβ3 with respect to the control group,TGFβ3; [12],132.22%
same,Percent increase in TGFβ3 with respect to the control group,TGFβ3; [13],835.84%
same,Percent increase in TGFβ3 with respect to the control group,TGFβ3; [14],655.71%
same,Percent increase in TGFβ3 with respect to the control group,TGFβ3; [15],496.55%
same,Percent increase in TGFβ3 with respect to the control group,TGFβ3; [16],374.47%
same,Percent increase in TGFβ3 with respect to the control group,TGFβ3; [17],775.37%
same,Percent increase in TGFβ3 with respect to the control group,TGFβ3; [18],427.90%
same,Percent increase in TGFβ3 with respect to the control group,TGFβ3; [19],215.59%
same,Percent increase in TGFβ3 with respect to the control group,TGFβ3; [20],169.46%
same,Percent increase in TGFβ3 with respect to the control group,TGFβ3; [21],"2,813.99%"
same,Percent increase in TGFβ3 with respect to the control group,TGFβ3; [22],"2,128.24%"
same,Percent increase in TGFβ3 with respect to the control group,TGFβ3; [23],"1,451.25%"
same,Percent increase in TGFβ3 with respect to the control group,TGFβ3; [24],"1,188.89%"
same,Percent increase in TGFβ3 with respect to the control group,TGFβ3; [25],"2,168.67%"
same,Percent increase in TGFβ3 with respect to the control group,TGFβ3; [26],"1,051.06%"
same,Percent increase in TGFβ3 with respect to the control group,TGFβ3; [27],482.03%
same,Percent increase in TGFβ3 with respect to the control group,TGFβ3; [28],158.62%
same,Percent increase in TGFβ3 with respect to the control group,TGFβ3; [29],967.72%
same,Percent increase in TGFβ3 with respect to the control group,TGFβ3; [30],879.34%
same,Percent increase in TGFβ3 with respect to the control group,TGFβ3; [31],659.59%
same,Percent increase in TGFβ3 with respect to the control group,TGFβ3; [32],456.45%
same,Percent increase in TGFβ3 with respect to the control group,TGFβ3; [33],879.45%
same,Percent increase in TGFβ3 with respect to the control group,TGFβ3; [34],543.45%
same,Percent increase in TGFβ3 with respect to the control group,TGFβ3; [35],309.45%
same,Percent increase in TGFβ3 with respect to the control group,TGFβ3; [36],112.43%
